Results: US20150065442A1, “REDUCIBLE SELF-ASSEMBLED MICELLE DRUG DELIVERY SYSTEMS” (University of Manitoba, priority 2012, published 2015)

Experiments:
[1] = tested on: hepatocellular carcinomatous HepG2 cells; test: Cellular uptake of DOX by confocal laser scanning microscopy; assay type: cell-based, human
Protocol: Confocal laser scanning microscopy (CLSM) was employed to examine the cellular uptake of DOX by incubating hepatocellular carcinomatous HepG2 cells with free DOX or the DOX-loaded micelles for 15 min, 2 h or 24 h. First, the HepG2 cells were seeded in culture dishes at a density of 2×10^5 cells/dish, overlaid with cover slips, and cultured for 24 h. Then, the cells were exposed to DOX-loaded micelles. After predetermined incubation times, the cover slips were removed and was washed with cold PBS three times after which, the cells were fixed by 4% paraformaldehyde in PBS at room temperature for 15 min. After fixation, the cells were permeabilized by 0.1% Triton X-100 in PBS for 10 min and then rinsed with PBS three times. The cells were incubated in 10 uM BODIPY® FL phallacidin/1% (w/v) BSA solution for 20 min and then rinsed with PBS three times (BODIPY is a registered trademark of Molecular Probes Inc., Eugene, Oreg., USA). The cells were then incubated in 10 μM Topro-3 for 20 min and then rinsed with PBS three times. The cover slips were set onto microscope slides and examined by CLSM.

[2] = tested on: MCF-7 human breast cancer cells; test: as above; assay type: cell-based
Protocol: Confocal laser scanning microscopy (CLSM) was employed to examine the cellular uptake of DOX by incubating MCF-7 human breast cancer cells with free DOX or DOX-loaded reducible self-assembled rPAE micelles or DOX-loaded non-reducible self-assembled nPAE micelles for 15 min and 2 h. First, the MCF-7 cells were seeded in 10-cm culture dishes at a density of 2×10^5 cells/dish, overlaid with cover slips, and cultured for 24 h. Then, the cells were exposed to DOX-loaded micelles. After the predetermined incubation times, the cover slips were removed and washed with cold PBS three times after which, the cells were fixed by 4% paraformaldehyde in PBS at room temperature for 15 min. After fixation, the cells were permeabilized by 0.1% Triton X-100 in PBS for 10 min and then rinsed with PBS three times. The cells were incubated in 10 uM BODIPY® FL phallacidin/1% (w/v) BSA solution for 20 min and then rinsed with PBS three times. The cells were then incubated in 10 μM Topro-3 for 20 min and then rinsed with PBS three times. The cover slips were set onto microscope slides and examined by CLSM.

HepG2 cells = test: MTT cytotoxicity (cell inhibition) assay; assay type: cell-based, human
Protocol: Hepatoma cells (HepG2) were used to investigate cell inhibition of DOX-loaded nanoparticles. HepG2 cells were obtained from the American Type Culture Collection and cultured with Dulbecco's Modified Eagle's Medium (DMEM, GIBCO) supplemented with 10% fetal bovine serum (FBS, GIBCO), 1.0×10^5 U/l penicillin (Sigma) and 100 mg/l streptomycin (Sigma) at 37° C. in 5% CO2.
The cytotoxicity of the copolymeric micelles loaded with DOX was determined using the MTT Cell Proliferation Kit (Biotium Inc., Hayward, Calif., USA). HepG2 cells were seeded into a 96-well tissue culture plate at a density of 8,000 cells per well and were incubated at 37° C. in 5% CO2. The growth medium was replaced with fresh DMEM after 24 h. Then the DOX-loaded PAE polymeric micelle solution and controls (free DOX and blank micelle solutions) were added into wells (six wells per sample). After 48 h of incubation, 10 μL MTT solution was added to each well and incubation continued for another 4 h. […] The absorbance of each well was measured using an ELISA plate reader at a test wavelength of 570 nm and a reference wavelength of 630 nm. The cell inhibition of samples was calculated as: […]
where Isample and Icontrol represent the intensity determined for cells treated with different samples and for control cells (untreated), respectively.

COc1cccc2c1C(=O)c1c(O)c3c(c(O)c1C2=O)C[C@@](O)(C(=O)CO)C[C@@H]3O[C@H]1C[C@H](N)[C@H](O)[C@H](C)O1 [free DOX, doxorubicin]
Intracellular distribution of DOX fluorescence ([1]; HepG2, 15-min incubation): evenly distributed in cell cytoplasm and the nuclei
Intracellular distribution of DOX fluorescence ([1]; HepG2, 2 h exposure): DOX fluorescence accumulation was detected in and around the nuclei
Cell morphology after exposure ([1]; HepG2, 24 h exposure): nucleus became distinctively swollen and the cytoplasm shrank
Intracellular distribution of DOX fluorescence ([1]; HepG2, 24 h exposure): most of DOX fluorescence was distributed into the nucleus
Intracellular DOX fluorescence ([2]; MCF-7, 15 min of incubation): fluorescing DOX molecules were observed intracellularly
Intracellular DOX fluorescence ([2]; MCF-7, 2 hr of incubation): accumulations of DOX molecules around the nuclei
Cytotoxicity, dose dependence (HepG2 cells): increases with increasing dose
